Measured values: patent US7629382B2, “Use of tellurium containing compounds as nerve protecting agents” (BioMAS Ltd., priority 2003, dated 2009)
Where “and” joins values, the source holds several entries; their conditions need not be identical. Equal values may be shown once.

Legend:
PC12 cells [1] = experiment: Detection of apoptosis in PC12 cells (NGF withdrawal); format: cell-based
Description: (§1) To assess the neuroprotective effects of AS101, PC12 cells were maintained in Dulbecco's modified Eagle's medium supplemented with 8% heat inactivated horse serum, 8% heat inactivated fetal bovine serum, glutamine (5 mM) and 50 μg/ml gentamycin at 37° C.
The percentage of cells undergoing apoptosis was quantitatively determined using an Apoptosis Detection kit, on the basis of their ability to bind annexin V and exclude iodide, and also by an in situ cell detection kit incorporating HTC labeling and TUNEL.

PC12 cells [2] = experiment: Cell cycle distribution of PC12 cells (propidium iodide flow cytometry); format: cell-based
Description: as §1
Cell cycle distribution studies were performed as previously described. Cells were trypsinyzed and suspended for 10 minutes at room temperature at 1.106/ml buffer containing lmg/ml RNAse, 1% NP-40, 10 μg/ml propidium iodide and 0.1% sodium citrate. Propidium iodide fluorescence was measured using a FACStar plus flow cytometer equipped with an air-cooled argon laser delivering 15 mW of light at […]. The red fluorescence from 1.104 cells from each sample was collected through a 610 nm bandpass filter.

PC12 cells [3] = experiment: Neuronal differentiation of PC12 cells; format: cell-based
Description: as §1

[4] = system: PC12 cells expressing the dominant negative form (N17) of ras; experiment: Neuronal differentiation of PC12 cells expressing dominant negative ras; format: cell-based
Description: as §1
The ras Asn-17 gene was then cloned into a mammalian expression vector. Transfection of PC12 cells with the plasmid DNA was performed with the calcium phosphate precipitation technique as described previously.

[5] = system: PC12 cells expressing a point mutation of Cys118 of P21ras; experiment: Neuronal differentiation of PC12 cells expressing Cys118 point mutation of p21ras; format: cell-based
recombinant p21 ras = recombinant p21 ras (Homo sapiens, UniProt P01112); experiment: Activation of recombinant p21ras by GDP/GTP exchange; format: biochemical; settings: incubated 10 minutes
Description: AS101 (ammonium trichloro(dioxoethylene-O,O′)tellurate) was incubated with recombinant p21^ras for 10 minutes;
(§2) The effect of AS101 on signaling pathways that are controlled by Ras superfamily GTPases was screened by parallel analysis of the activation of the Ras family GTPases and their effectors (FIG. 1). The primary methods used for studying activation of different Ras superfamily GTPases were: (a) pull down of activated Ras superfamily GTPases from cell lysates, by binding of the specific recombinant purified effector GTPase binding domains to the activated GTP bound form. Subsequent to the pull down of the activated GTPases, the proteins were detected and quantified by western blotting; (b) activation of GTPases effectors such as Raf or RAC, by reporter gene assays; and (c) direct immunoprecipitation kinase assays (FIG. 2).
P21ras was cleaved by cyanogen bromide. This process yielded three fragments, each containing one cysteine residue: fragment 1 containing Cys51 (Mr 7,203); fragment 2 containing Cys60 (Mr 4,540) and fragment 3 containing Cys118 (Mr 6223). To confirm that Cys118 is the molecular target of AS101, a form of p21ras was generated identical to the wild type enzyme except that Cys118 is changed by a Ser residue (referred to as p21rasC118S). […] The stimulation by AS101 of nucleotide exchange on GDP-preloaded p21rasC118S in vitro was determined.

Erk = experiment: Kinase assay of immunoprecipitated Erk with myelin basic protein as substrate; format: cell-based; settings: Jurkat T cells or NIH3T3 cells
Description: NIH3T3 cells were incubated with AS101 for 10 minutes with or without famesyl transferase inhibitor.
Endogenous JNK and erk were immunoprecipitated from cell lysates with specific antibodies and their activities measured by using p^32 ATP and glutathione s-transferase (GST) e-jun or myelin basic protein (MPB) respectively, as the substrate. Samples were run on SDS-polyacrylamide gel electrophoresis gels and subjected to Phosphorlmager analysis.
as §2

c-raf-1 = experiment: Activation of p21ras downstream effector c-raf-1; format: cell-based; settings: cells incubated with AS101 for 15 minutes
Source text: as §2

p21waf = p21waf protein expression in PC12 cells (Western blotting); format: cell-based; settings: for effect of pretreatment on p21waf protein expression induced by AS101: PC12 cells pretreated before AS101
Description: PC12 cells were washed in serum-free medium, resuspended to 1-5×10^6cells/ml. After 24 hours of incubation at 37° C. in culture, the cells were supplemented with 3 ml of medium (RPMI 1640 containing 10% FCS, 2% glutamine and 1 mg/ml G418 (Life Technologies, Inc.). After another 24 hours, cells were resuspended and maintained in the selection medium. After 3-4 weeks in selective medium, transfected cells were analyzed for via Western blotting. Results are expressed as percent p21 as compared to the negative (no drug) control.
PC12 cell extracts (20 μg/lane of protein) boiled under reducing conditions, were subjected to electrophoresis on 7.5 and 12.5% polyacrylamide gels and electro-transferred to nitrocellulose membranes. The membrane was blocked for one hour with 10% powdered milk in 0.2% Tween 20, Tris-buffered saline, and then incubated with the appropriate specific detecting antibodies. Immunoreactive proteins were detected with horseradish peroxidase-conjugated secondary antibodies (Amersham, Arlington Heights, Ill.) and a chemiluminescence reagent. For immunoprecipitation studies, immune complexes were precipitated with Protein A-Sepharose (Pharmacia) and, following electrophoresis, were blotted with anti-phosphoserine or anti-phosphotyrosine antibodies.

spinal cord injury = experiment: Rat spinal cord injury model (weight-drop contusion); format: in vivo
Description: Twenty rats were divided into 4 treatment groups (control, AS101 15; 20; 30 μg). Experimental spinal cord injury (SCI) was induced via weight-drop contusion models that result in significant locomotor deficits, including lack of coordination and trunk stability. AS101 was applied topically to the damaged area and rats were treated for 21 days with AS101 administrated i.v. At the end of the first week following SCI, and on days 14 and 21, recovery was determined using Basso, Beattie and Bresnahan (BBB) locomotor scale score.

[6] = rats; intravenous and intramuscular administration; cited from earlier work

Chain of recombinant p21 ras (P01112 whole entry, species assumed): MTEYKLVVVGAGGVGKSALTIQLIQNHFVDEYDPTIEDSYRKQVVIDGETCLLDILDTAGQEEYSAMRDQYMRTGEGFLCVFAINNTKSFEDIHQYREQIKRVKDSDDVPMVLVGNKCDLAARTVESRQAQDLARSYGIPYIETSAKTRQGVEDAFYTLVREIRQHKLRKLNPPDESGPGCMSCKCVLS

Compound: Cl[TeH]1(Cl)(Cl)OCCO1 [AS101, ammonium trichloro(dioxyethylene-O,O′)tellurate]
- Apoptotic (PC12 cells [1]; AS101 0.1 μg/ml): 8.8%
- Apoptotic (PC12 cells [1]; AS101 0.5 μg/ml): 5.3%
- Apoptotic (PC12 cells [1]; AS101 1 μg/ml): 6.6%
- G0/G1 (PC12 cells [2]; AS101 0.1 μg/ml): 39.7%
- G2/M (PC12 cells [2]; AS101 0.1 μg/ml): 16.4%
- S (PC12 cells [2]; AS101 0.1 μg/ml): 43.9%
- G2/M (PC12 cells [2]; AS101 0.5 μg/ml): 27.9%
- S (PC12 cells [2]; AS101 0.5 μg/ml): 4.0%
- G0/G1 (PC12 cells [2]; AS101 0.5 μg/ml, 24 hours): 68.1%
- G0/G1 (PC12 cells [2]; AS101 1 μg/ml): 67.5%
- G2/M (PC12 cells [2]; AS101 1 μg/ml): 29%
- S (PC12 cells [2]; AS101 1 μg/ml): 3.5%
- G0/G1 (PC12 cells [2]; NGF + anti NGF Ab + AS101): 68%
- G2/M (PC12 cells [2]; NGF + anti NGF Ab + AS101): 27.6%
- S (PC12 cells [2]; NGF + anti NGF Ab + AS101): 4.4%
- neuronal differentiation (PC12 cells [3]): induced neuronal differentiation in a dose-dependent manner
- optimal doses for inducing neuronal differentiation (PC12 cells [3]): 0.5 µg/mL and 1 µg/mL
- differentiation [4]: did not result in their differentiation
- cellular differentiation [5]: did not result in cellular differentiation
- binding to and activation of p21 ras via GDP/GTP exchange (recombinant p21 ras): directly binds to recombinant p21 ras and activates it via GDP/GTP exchange
- activation of ras and downstream effector Erk (Erk): activated ras and its downstream effector, Erk
- activation of c-raf-1 (c-raf-1): could activate
- p21waf protein expression (p21waf; PC12 cells, 24 h, dose-dependent): pronounced increase
- reduction in body weight following injury (spinal cord injury): attenuated
- mortality (spinal cord injury; 20 μg AS101 group, two deaths in control group): no mortality
- mortality (spinal cord injury; 30 μg AS101 group, two deaths in control group): no mortality
- tolerability / adverse side effects (spinal cord injury; administration after spinal cord injury): well tolerated
- BBB locomotor scale score (functional recovery) (spinal cord injury; high dose AS101, repeated administration, control 1±1.7): 3±2
- deaths (spinal cord injury; low dose group, two deaths in control group): one
- therapeutic effect during second and third weeks of treatment (spinal cord injury; second and third weeks): no beneficial effect
- LD50 relative to immunologically effective dose [6]: 500-1000 folds

Compound: COc1cccc(-c2cc(=O)c3ccccc3o2)c1N [PD98059]
- effect of pretreatment on p21waf protein expression induced by AS101 (p21waf): abolished

Compound: COC(=O)[C@H](CCSC)NC(=O)c1ccc(NC[C@@H](N)CS)cc1-c1ccccc1 [farnesyl transferase inhibitor]
- effect of pretreatment on p21waf protein expression induced by AS101 (p21waf): abolished
